Structures are written as SMILES. Where a name gives a salt, the structure may show the parent alone. Read-outs that look alike come from different tables or passages of the source.

The subject of data set [1] is SARS-CoV-2. The class given is cell-based. As to conditions: 48 hours, Calu-3, FIG. 6.
The test system of data set [2] is SARS-CoV-2-infected Vero E6 cells. The data set is described as follows: Cell cytotoxicity (cell lysis / plaques, monoclonal antibody) of SARS-CoV-2-infected Vero E6 cells. The class given is cell-based, African green monkey. As to conditions: 48 hours; for cell cytotoxicity (cell lysis): FIG. 5. On the procedure: With reference to FIG. 5 (Example 3), Vero E6 were infected with SARS-CoV-2 virus, treated with 0.2 μM, 1.0 μM, 5.0 μM, 20 μM, and 80 μM of TMP, and tested for cell cytotoxicity using monoclonal antibodies after 48 hours. Infected Vero E6 cells without treatment were used as a negative control and infected Vero E6 cells treated with CM were used as a positive control. Here, the cells were tested for cytotoxicity via the formation of plaques identified with a monoclonal antibody.
(§1) Vero E6 African green monkey kidney epithelial cells were cultured as host cells for the SARS-CoV-2 coronavirus in 96-well cell culture plates. 500-1500 units of SARS-CoV-2 virus in Eagle's minimal essential medium (EMEM) with 10% Fetal Bovine Serum (FBS), L-glutamine, and Na-pyruvate phosphate buffered saline was introduced to the Vero E6 cell culture wells as described in Ogando et al., Journal of General Virology (2020) (available at biorxiv.org/content/10.1101/2020.04.20.049924v1). […] Plaques were identified using a plaque assay with the mouse monoclonal antibody J2 (Ogando et al., supra). Viral RNA was also isolated from the media supernatant and virus copy number was determined by RT-PCR for estimation of virus copy number following treatment.
Stock solutions of TMP were prepared by dissolving TMP in 100% DMSO at 50 mM with warming at 70° C. for 3 hours. TMP was added to the SARS-CoV-2-infected Vero E6 cells in the following concentrations: 0.2 μM, 1 μM, 5 μM, 20 μM, and 80 μM. Untreated infected Vero E6 cells and infected Vero E6 treated with CM were used as negative and positive controls, respectively. 48 hours following treatment with TMP, 400 μL of supernatant was collected from each plate well and viral RNA (no cellular RNA was collected) and virus copy number were measured from the extracted DNA by the ORIG3N RT-PCR test for the 1 μM, 5 μM, and 20 μM TMP-treatment wells as well as for the negative and positive controls. Separately, cell lysis was measured for all five TMP-treatment wells as well as for the negative and positive controls. The assay was repeated two additional times. FIGS. 4A-4C show the mean±SD of the number of copies of SARS-CoV-2 RNA measured from the cell supernatant for the three assay runs of the Vero E6 cells.

Data set [3] concerns NL63-infected LLC-MK2 cells. In words: LDH release cytotoxicity assay on NL63-infected LLC-MK2 cells. The class given is cell-based, rhesus monkey. As to conditions: five days. How it is done:
With reference to FIG. 2 (Example 2), the exposure time of TMP on NL63-infected LLC-MK2 cells was measured to determine if long-term exposure to TMP could result in cell cytotoxicity. Cytotoxicity to the host cells can be caused by viral infection, which causes cell lysis, or by toxicity of test compounds to host cells. Cytotoxicity is measured by the release of lactate dehydrogenase (LDH), a cellular housekeeping enzyme, and its conversion of a colored substrate in the final reaction. Cells that die or lyse release LDH into the extracellular milieu; thus, the more LDH that is released by dying cells, the higher the LDH reading.
LLC-MK2 cells were inoculated with NL63 as provided in Example 1. The cells were tested for cytotoxicity through the release of lactate dehydrogenase (LDH), the latter of which was measured and quantified with an LDH assay multiplate reader. The cytotoxicity assay was performed three times and values for each treatment group and controls were averaged across assays, as show in FIGS. 2 and 3.
In general terms: LDH leaks from cells whose membrane has failed.

The subject of a further data set is HCoV-NL63. As to conditions: 48 hours; for cell toxicity resulting from the TMP treatment: LLC-MK2 cells.
In data set [4] the test system is SARS-CoV-2-infected Calu-3 cells. In words: Cell cytotoxicity (plaques, monoclonal antibody) of SARS-CoV-2-infected Calu-3 cells. The class given is cell-based, human. As to conditions: 48 hours, Calu-3, FIG. 6. How it is done:
With reference to FIG. 6 (Example 4), the TMP-treatment protocol for the Vero E6 cells was repeated with Calu-3 cells (human non-small-cell lung cancer cells) infected with SARS-CoV-2. Infected Calu-3 cells without treatment were used as a negative control and infected Calu-3 cells treated with CM were used as a positive control. A monoclonal antibody was used to identify cell cytotoxicity.
as §1, with “Calu-3 human non-small-cell lung cancer” for “Vero E6 African green monkey kidney epithelial”, “supra.” for “Journal of General Virology (2020) (available at biorxiv.org/content/10.1101/2020.04.20.049924v1).”
Stock solutions of TMP were prepared by dissolving TMP in 100% DMSO at 50 mM with warming at 70° C. for 3 hours. TMP was added to the SARS-CoV-2-infected Vero E6 cells in the following concentrations: 5 μM, 20 μM, and 40 μM. Untreated infected Vero E6 cells and infected Vero E6 treated with CM were used as negative and positive controls, respectively. 48 hours following treatment with TMP, 400 μL of supernatant was collected from each plate well and viral RNA (no cellular RNA was collected) and virus copy number were measured determined from the extracted DNA by the ORIG3N RT-PCR test. The assay was repeated two additional times.

Data set [5] deals with SARS-CoV-2. The class given is cell-based.

As for `CN(C)C(=O)COC(=O)Cc1ccc(OC(=O)c2ccc(NC(=N)N)cc2)cc1` [CM, camostat mesylate, reference compound], in the data set on SARS-CoV-2 [1] (CM control), the viral replication entry is “almost zero viral replication”. Further, in data set [2] (CM positive control), the “cell cytotoxicity (cell lysis)” value was “no appreciable cytotoxic effects”. For the same compound, the “cell toxicity (LDH release)” value in data set [3] (CM positive control, FIG. 2) is “no cell toxicity”.

Take `COc1ccc(C[C@@H](C)[C@@H](C)Cc2ccc(OC)c(OC)c2)cc1OC` [TMP, Tetra-O-methyl NDGA]: the viral activity result in the data set with HCoV-NL63 (0.2 μM TMP, FIG. 1) is listed as “partial reduction in viral activity”; in the data set on HCoV-NL63 (1 μM TMP, FIG. 1), “almost no viral activity”; in the data set with HCoV-NL63 (5 μM TMP, FIG. 1), “almost no viral activity”; with SARS-CoV-2 [5] (1 μM TMP, 48 hours, FIGS. 4B and 4C), “increase in viral activity”. The “viral RNA copy number (mean+standard deviation)” value in the data set on HCoV-NL63 (0.2 μM TMP, NL63-infected LLC-MK2 cells, FIG. 1, P=0.004 versus negative control) was 50,882+2,296 copies. Moreover, the “cell toxicity resulting from the TMP treatment” value in the data set on HCoV-NL63 (1 μM TMP) was “no discernable cell toxicity”; with HCoV-NL63 (5 μM TMP) it was “no discernable cell toxicity”; in data set [2] (20 μM TMP, FIGS. 4B and 4C runs), “no discernable cell toxicity”. Also, the “dose response of viral RNA” value in the data set on HCoV-NL63 (0.2, 1 and 5 μM TMP, FIG. 1) is given as “linear response that plateaued at 1 μM TMP”. The cell cytotoxicity result is “non-detectable cytotoxicity” in data set [4] (5 μM TMP), “non-detectable cytotoxicity” in data set [4] (20 μM TMP) and “only slightly increased cytotoxicity” in data set [4] (40 μM TMP). Further, the viral replication result with SARS-CoV-2 [5] (5 μM TMP, 48 hours, FIGS. 4B and 4C) was “zero viral replication”; in the data set on SARS-CoV-2 [5] (20 μM TMP, 48 hours, FIG. 4A) it was “almost zero viral replication”; with SARS-CoV-2 [5] (20 μM TMP, 48 hours, FIGS. 4B and 4C) it was “reduction in viral replication comparable to the CM-treated positive control”; in the data set with SARS-CoV-2 [1] (20 μM TMP) it was “almost zero viral replication”; in the data set with SARS-CoV-2 [1] (40 μM TMP) it was “almost zero viral replication”. In addition, the “dose response of viral replication” value with SARS-CoV-2 [5] (FIG. 4A, 48 hours, Vero E6) is listed as “linear dose response”. Further, in the data set with SARS-CoV-2 [5] (SARS-CoV-2-infected Vero E6 in vitro, FIGS. 4A-4C), the “optimal TMP treatment range” value turned out to be 5 µM. Further, the “reduction in the mean number of copies of SARS-CoV-2 compared to the negative control” value in the data set on SARS-CoV-2 [1] (5 μM TMP) is recorded as 25%. Further, the “cell cytotoxicity (cell lysis)” value in data set [2] (0.2 μM TMP) was “no appreciable cytotoxic effects”; in data set [2] (1.0 μM TMP), “no appreciable cytotoxic effects”; in data set [2] (5 μM TMP) it was “no appreciable cytotoxic effects”; in data set [2] (20 μM TMP) it was “reduced in comparison to the 80 μM treatment”; in data set [2] (80 μM TMP), “high percentage of cell lysis”. Also, the “cell lysis (LDH release)” value is given as 1-2% in data set [3] (0.2 μM TMP, FIG. 3); 10% in data set [3] (5 μM TMP, FIG. 2); approximately 20% in data set [3] (5 μM TMP, FIG. 3); 20-30% in data set [3] (20 μM TMP, FIG. 2); “approximately 8%” in data set [3] (increased TMP concentration (between 0.2 and 5 μM; FIG. 3 series 0.2, 1, 5 μM)). Also, the “cell lysis (LDH release), observation” value in data set [3] (80 μM TMP, FIG. 2) is reported as “cells separating from the plate”.

For the origin of these results see US11844768B2, “Terameprocol and nordihydroguaiaretic acid (NDGA) derivatives as coronavirus anti-viral agents” (Erimos Pharmaceuticals, LLC, priority 2021, dated 2023).
